# Results published in PubChem BioAssay AID1963978 (Molecular Pharmacology Branch, DTP, NCI, 2024).
# Tested on: 616215-338-R-J1-PDC spheroids with HUVEC/MSC, viability
# Test: Anticancer human tumor 616215-338-R-J1-PDC patient-derived colon adenocarcinoma cell line growth inhibition [PI3K]
# Conditions: for IC50: curve of first compound; for viability, T/C: stronger effect = lower value
# Excerpt: Combinatorial screen of targeted agents with the PI3K inhibitors inavolisib, alpelisib, duvelisib, and copanlisib in multi-cell type tumor spheroids
# A high-throughput screen of multi-cell type tumor spheroids was designed to identify active combinations of targeted small molecules and PI3K pathway inhibitors. Complex spheroids include a stromal component modeled by human endothelial cells (HUVEC) and fibroblasts modeled by human mesenchymal stem cells (MSCs). The concentration ranges selected for each drug and investigational agent were based upon clinically achievable concentrations if the clinical Cmax of the agent was known.
# Compounds. The drugs and investigational agents: inavolisib (NSC800729), alpelisib (NSC765974), duvelisib (NSC772469), copanlisib (NSC816437), ipatasertib (NSC767898), afuresertib (NSC778305), talazoparib (NSC767125), sapanisertib (NSC764658), selumetinib (NSC741078), tovorafenib (DAY101, NSC766906), vemurafenib (NSC761431), ravoxertinib (NSC781343), sotorasib (NSC818433), MRTX1133 (NSC 836407), abemaciclib (NSC 768073), palbociclib (NSC758247), venetoclax (NSC 766270), SY5609 (NSC837396), enzalutamide (NSC755605), and darolutamide (NSC825331), were obtained from the National Cancer Institute (NCI) Developmental Therapeutics Program Chemical Repository. The FDA-approved anticancer drug set is available from the NCI Developmental Therapeutics Program. […] The stock solutions were prepared in dimethyl sulfoxide (DMSO, Sigma-Aldrich, St. Louis, MO, cat. D2650) at 800-fold the tested concentration and stored at -70 degrees C prior to their use. All drugs and investigational agents were tested over a range starting from a high concentration at or near the clinical Cmax and decreasing in half-log increments. If the clinical Cmax for an agent had not been determined, the highest concentration tested was 10 microM.
# Cell Culture. All cells were maintained in an incubator at 37 degrees C and 5% CO2 with 95% humidity. The PDC lines were cultured according to standard operating procedures established by the NCI PDMR (https://pdmr.cancer.gov/sops/default.htm). All PDCs were thawed and cultured in Matrigel-coated flasks prepared with a working solution of 1X Ham's F-12 nutrient mix, without supplementation (Invitrogen, Waltham, MA, cat. 11765054), 100 U/mL penicillin-streptomycin (Invitrogen, cat. 15140122), and 2.5% Matrigel (Corning Inc., Corning, NY, cat. 354248) for the first three passages. The 354836-022-R-J1-PDC, 475296-252-R-J1-PDC, and 997726-040-R-J2-PDC lines were cultured in 6A media, which includes advanced DMEM/F-12 (Thermo Fisher Scientific, cat. 12634028), 10 mM HEPES (Thermo Fisher Scientific, cat. 15630080), 1X GlutaMAX supplement (Thermo Fisher Scientific, cat. 35050061), 0.1 mg/mL primocin (InvivoGen, San Diego, CA, cat. ant-pm-2), 10% defined fetal bovine serum, heat inactivated (HyClone Laboratories Inc., Logan, UT, cat. SH30070.03HI), 50% L-WRN conditioned media (ATCC, cat. CRL-3276), 1.25 mM N-Acetyl-L-cysteine (Sigma-Aldrich, cat. A9165), 10 mM nicotinamide (Sigma-Aldrich, cat. N0636), 1X B-27 supplement (Thermo Fisher Scientific, cat. 17504044), 1X N-2 supplement (Thermo Fisher Scientific, cat. 17502048), and 10 microM Y-27632 dihydrochloride (Tocris Bioscience, Bristol, United Kingdom, cat. 1254). The 624824-186-R-J2-PDC line was cultured in 6C/Colon 1B media, which includes all 6A media components plus 50 ng/mL human EGF recombinant protein (Thermo Fisher Scientific, cat. PHG0311). […]
# [1] = second compound 0.00316 µM, first compound 0.0316 µM
# [2] = second compound 0.00316 µM, first compound 0.1 µM
# [3] = second compound 0.00316 µM, first compound 0.316 µM
# [4] = second compound 0.00316 µM, first compound 1 µM
# [5] = second compound 0.00316 µM, first compound 3.16 µM
# [6] = second compound 0.00316 µM, first compound 10 µM
# [7] = second compound 0.01 µM, first compound 0.0316 µM
# [8] = second compound 0.01 µM, first compound 0.1 µM
# [9] = second compound 0.01 µM, first compound 0.316 µM
# [10] = second compound 0.01 µM, first compound 1 µM
# [11] = second compound 0.01 µM, first compound 3.16 µM
# [12] = second compound 0.01 µM, first compound 10 µM
# [13] = second compound 0.0316 µM, first compound 0.0316 µM
# [14] = second compound 0.0316 µM, first compound 0.1 µM
# [15] = second compound 0.0316 µM, first compound 0.316 µM
# [16] = second compound 0.0316 µM, first compound 1 µM
# [17] = second compound 0.0316 µM, first compound 3.16 µM
# [18] = second compound 0.0316 µM, first compound 10 µM
# [19] = second compound 0.1 µM, first compound 0.0316 µM
# [20] = second compound 0.1 µM, first compound 0.1 µM
# [21] = second compound 0.1 µM, first compound 0.316 µM
# [22] = second compound 0.1 µM, first compound 1 µM
# [23] = second compound 0.1 µM, first compound 3.16 µM
# [24] = second compound 0.1 µM, first compound 10 µM
# [25] = second compound 0.316 µM, first compound 0.0316 µM
# [26] = second compound 0.316 µM, first compound 0.1 µM
# [27] = second compound 0.316 µM, first compound 0.316 µM
# [28] = second compound 0.316 µM, first compound 1 µM
# [29] = second compound 0.316 µM, first compound 3.16 µM
# [30] = second compound 0.316 µM, first compound 10 µM
# [31] = second compound 1 µM, first compound 0.0316 µM
# [32] = second compound 1 µM, first compound 0.1 µM
# [33] = second compound 1 µM, first compound 0.316 µM
# [34] = second compound 1 µM, first compound 1 µM
# [35] = second compound 1 µM, first compound 3.16 µM
# [36] = second compound 1 µM, first compound 10 µM
# 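Further: spheroids exposed to agents for seven days before the viability read.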
compound,measurement,setting,value
CNC(=O)c1ccc(N2C(=S)N(c3ccc(C#N)c(C(F)(F)F)c3)C(=O)C2(C)C)cc1F + CC(Nc1ccc2c(c1)OCCn1cc(N3C(=O)OCC3C(F)F)nc1-2)C(N)=O,IC50,second compound 0.00316 µM,> 10 µM
same,IC50,second compound 0.01 µM,> 10 µM
same,IC50,second compound 0.0316 µM,> 10 µM
same,IC50,second compound 0.1 µM,> 10 µM
same,IC50,second compound 0.316 µM,> 10 µM
same,IC50,second compound 1 µM,> 10 µM
same,"viability, T/C",[1],102%
same,"viability, T/C",[2],89.1%
same,"viability, T/C",[3],101%
same,"viability, T/C",[4],94.5%
same,"viability, T/C",[5],112%
same,"viability, T/C",[6],100%
same,"viability, T/C",[7],94.7%
same,"viability, T/C",[8],101%
same,"viability, T/C",[9],98.3%
same,"viability, T/C",[10],105%
same,"viability, T/C",[11],99.7%
same,"viability, T/C",[12],95%
same,"viability, T/C",[13],105%
same,"viability, T/C",[14],94%
same,"viability, T/C",[15],102%
same,"viability, T/C",[16],97.9%
same,"viability, T/C",[17],99.8%
same,"viability, T/C",[18],102%
same,"viability, T/C",[19],102%
same,"viability, T/C",[20],87.2%
same,"viability, T/C",[21],110%
same,"viability, T/C",[22],97.7%
same,"viability, T/C",[23],96.2%
same,"viability, T/C",[24],108%
same,"viability, T/C",[25],95%
same,"viability, T/C",[26],113%
same,"viability, T/C",[27],107%
same,"viability, T/C",[28],102%
same,"viability, T/C",[29],102%
same,"viability, T/C",[30],94.5%
same,"viability, T/C",[31],104%
same,"viability, T/C",[32],94.2%
same,"viability, T/C",[33],102%
same,"viability, T/C",[34],104%
same,"viability, T/C",[35],104%
same,"viability, T/C",[36],86.7%
CC(Cn1ccc(-c2ccc(C#N)c(Cl)c2)n1)NC(=O)c1cc(C(C)O)[nH]n1 (stereo unspecified) + CC(Nc1ncnc2nc[nH]c12)c1cc2cccc(Cl)c2c(=O)n1-c1ccccc1,IC50,second compound 0.0316 µM,> 10 µM
same,IC50,second compound 0.1 µM,> 10 µM
same,IC50,second compound 0.316 µM,> 10 µM
same,IC50,second compound 1 µM,> 10 µM
same,IC50,second compound 3.16 µM,> 10 µM
same,IC50,second compound 10 µM,> 10 µM
same,"viability, T/C",[13],92%
same,"viability, T/C",[14],99.5%
same,"viability, T/C",[15],103%
same,"viability, T/C",[16],96.1%
same,"viability, T/C",[17],116%
same,"viability, T/C",[18],99.5%
same,"viability, T/C",[19],93.7%
same,"viability, T/C",[20],94.6%
same,"viability, T/C",[21],102%
same,"viability, T/C",[22],92.9%
same,"viability, T/C",[23],95.5%
same,"viability, T/C",[24],104%
same,"viability, T/C",[25],93.1%
same,"viability, T/C",[26],102%
same,"viability, T/C",[27],89.1%
same,"viability, T/C",[28],101%
same,"viability, T/C",[29],102%
same,"viability, T/C",[30],93.4%
same,"viability, T/C",[31],96%
same,"viability, T/C",[32],88.3%
same,"viability, T/C",[33],110%
same,"viability, T/C",[34],93.7%
same,"viability, T/C",[35],110%
same,"viability, T/C",[36],95.9%
same,"viability, T/C","second compound 3.16 µM, first compound 0.0316 µM",109%
same,"viability, T/C","second compound 3.16 µM, first compound 0.1 µM",97.1%
same,"viability, T/C","second compound 3.16 µM, first compound 0.316 µM",107%
same,"viability, T/C","second compound 3.16 µM, first compound 1 µM",104%
same,"viability, T/C","second compound 3.16 µM, first compound 3.16 µM",94.8%
same,"viability, T/C","second compound 3.16 µM, first compound 10 µM",92.8%
same,"viability, T/C","second compound 10 µM, first compound 0.0316 µM",99.4%
same,"viability, T/C","second compound 10 µM, first compound 0.1 µM",106%
same,"viability, T/C","second compound 10 µM, first compound 0.316 µM",101%
same,"viability, T/C","second compound 10 µM, first compound 1 µM",97%
same,"viability, T/C","second compound 10 µM, first compound 3.16 µM",118%
same,"viability, T/C","second compound 10 µM, first compound 10 µM",95.5%
Cn1nccc1Nc1nccc(-c2ccn(C(CO)c3ccc(Cl)c(F)c3)c(=O)c2)n1 (stereo unspecified) + COc1c(OCCCN2CCOCC2)ccc2c3n(c(=NC(=O)c4cnc(N)nc4)nc12)CCN3,IC50,second compound 0.00316 µM,3.28 µM
same,IC50,second compound 0.01 µM,1.11 µM
same,IC50,second compound 0.0316 µM,0.659 µM
same,IC50,second compound 0.1 µM,0.412 µM
same,IC50,second compound 0.316 µM,< 0.0316 µM
same,IC50,second compound 1 µM,< 0.0316 µM
same,"viability, T/C",[1],99.7%
same,"viability, T/C",[2],94.4%
same,"viability, T/C",[3],76.8%
same,"viability, T/C",[4],67.7%
same,"viability, T/C",[5],48.5%
same,"viability, T/C",[6],40.7%
same,"viability, T/C",[7],96.7%
same,"viability, T/C",[8],102%
same,"viability, T/C",[9],81.2%
same,"viability, T/C",[10],49.8%
same,"viability, T/C",[11],42.4%
same,"viability, T/C",[12],28.8%
same,"viability, T/C",[13],94.1%
same,"viability, T/C",[14],92.8%
same,"viability, T/C",[15],59.6%
same,"viability, T/C",[16],42.2%
same,"viability, T/C",[17],25.6%
same,"viability, T/C",[18],10.7%
same,"viability, T/C",[19],92.4%
same,"viability, T/C",[20],83.8%
same,"viability, T/C",[21],46.6%
same,"viability, T/C",[22],37.5%
same,"viability, T/C",[23],13.9%
same,"viability, T/C",[24],0.2%
same,"viability, T/C",[25],38%
same,"viability, T/C",[26],38.6%
same,"viability, T/C",[27],22.6%
same,"viability, T/C",[28],13.2%
same,"viability, T/C",[29],1.77%
same,"viability, T/C",[30],0.14%
same,"viability, T/C",[31],19.6%
same,"viability, T/C",[32],11.4%
same,"viability, T/C",[33],4.09%
same,"viability, T/C",[34],0.93%
same,"viability, T/C",[35],0.9%
same,"viability, T/C",[36],0.16%
